Experiments:
[1] = Chiral stability (interconversion) of isolated atropisomers in ethanol; type: physicochemical; conditions: for % ee of sample @ 40° C. / % ee sample @ 80° C.: ethanol; for interconversion / racemization of atropisomers: heating for 10 days at 40° C. and 80° C.
Experimental: To assess the interconversion of atropisomer A-1 and atropisomer A-2, chiral stability was monitored at 40° C. and 80° C. […] 1. 2×1 mg of pure atropisomer was dissolved in 1 mL of ethanol in a sealed-dram vial. • 2. One set of vials was heated at 40° C. and another set at 80° C. • 3. At specified time-points a 20 μL aliquot from each stock solution (1 mL) was taken and quenched into a HPLC vial containing a 80 μL solution of hexane:ethanol; 80:20 to afford a final concentration of […] and the sample was analysed by chiral HPLC • 4. Analysis was carried out at the following time-points: 0 h, 24 h, 48 h, 72 h, 96 h and 240 h for the samples kept at 40° C. and 24 h, 96 h and 240 h for the samples kept at 80° C. using chiral HPLC method 5

SW620 = test: Cancer cell line panel proliferation (CellTiter-Glo); type: cell-based; conditions: SW620, Large intestine/Colorectum, 72 hours
Experimental: (§1) Screening against diverse cancer cell lines was performed to identify tumour types displaying sensitivity to atropisomers A-1 and A-2. A panel of 48 cancer-derived cell lines was screened in a high-throughput proliferation assay using dilutions of atropisomers A-1/A-2. Cell lines that were screened included those representing cancer of the pancreas, large intestine/colorectum, lung, brain and nerves, and lymphoma and leukaemia cell lines. Cell lines were treated with serial half-log dilutions of compound and assayed 72 hours later for proliferation using CellTiter-Glo Assay (Promega). IC50 values were calculated by fitting the dose-response data using a nonlinear regression model.

ML-2 = test: as above; type: cell-based; conditions: ML-2, Blood/Leukaemia, 72 hours
Experimental: as §1

JVM-2 = test: as above; type: cell-based; conditions: JVM-2, Blood/Lymphoma, 72 hours
Experimental: as §1

NCI-H1299 = test: as above; type: cell-based; conditions: NCI-H1299, Lung, 72 hours
Experimental: as §1

SK-MES-1 = test: as above; type: cell-based; conditions: SK-MES-1, Lung, 72 hours
Experimental: as §1

T98G = test: as above; type: cell-based; conditions: Brain&Nerves, 72 hours
Experimental: as §1

LN-229 = test: as above; type: cell-based; conditions: LN-229, Brain&Nerves, 72 hours
Experimental: as §1

A549 = test: as above; type: cell-based; conditions: A549, Lung, 72 hours
Experimental: as §1

SW480 = test: as above; type: cell-based; conditions: SW480, Large intestine/Colorectum, 72 hours
Experimental: as §1

Ramos = test: as above; type: cell-based; conditions: Blood/Lymphoma, 72 hours
Experimental: as §1

HBL-1 = test: as above; type: cell-based; conditions: HBL-1, Blood/Lymphoma, 72 hours
Experimental: as §1

OCI-LY-19 = test: as above; type: cell-based; conditions: OCI-LY-19, Blood/Lymphoma, 72 hours
Experimental: as §1

Z-138 = test: as above; type: cell-based; conditions: Z-138, Blood/Lymphoma, 72 hours
Experimental: as §1

Daudi = test: as above; type: cell-based; conditions: Blood/Lymphoma, 72 hours
Experimental: as §1

LoVo = test: as above; type: cell-based; conditions: Large intestine/Colorectum, 72 hours
Experimental: as §1

SU-DHL-2 = test: as above; type: cell-based; conditions: SU-DHL-2, Blood/Lymphoma, 72 hours
Experimental: as §1

PANC-1 = test: as above; type: cell-based; conditions: PANC-1, Pancreas, 72 hours
Experimental: as §1

KG-1 = test: as above; type: cell-based; conditions: KG-1, Blood/Leukaemia, 72 hours
Experimental: as §1

D283 Med = test: as above; type: cell-based; conditions: Brain&Nerves, 72 hours
Experimental: as §1

WSU-DLCL2 = test: as above; type: cell-based; conditions: WSU-DLCL2, Blood/Lymphoma, 72 hours
Experimental: as §1

Capan-1 = test: as above; type: cell-based; conditions: Capan-1, Pancreas, 72 hours
Experimental: as §1

SW1088 = test: as above; type: cell-based; conditions: SW1088, Brain&Nerves, 72 hours
Experimental: as §1

AsPC-1 = test: as above; type: cell-based; conditions: AsPC-1, Pancreas, 72 hours
Experimental: as §1

Raji = test: as above; type: cell-based; conditions: Blood/Lymphoma, 72 hours
Experimental: as §1

Daoy = test: as above; type: cell-based; conditions: Brain&Nerves, 72 hours
Experimental: as §1

Toledo = test: as above; type: cell-based; conditions: Blood/Lymphoma, 72 hours
Experimental: as §1

SU-DHL-6 = test: as above; type: cell-based; conditions: SU-DHL-6, Blood/Lymphoma, 72 hours
Experimental: as §1

A-172 = test: as above; type: cell-based; conditions: A-172, Brain&Nerves, 72 hours
Experimental: as §1

U-2932 = test: as above; type: cell-based; conditions: U-2932, Blood/Lymphoma, 72 hours
Experimental: as §1

NCI-H1373 = test: as above; type: cell-based; conditions: NCI-H1373, Lung, 72 hours
Experimental: as §1

NAMALWA = test: as above; type: cell-based; conditions: Blood/Lymphoma, 72 hours
Experimental: as §1

JeKo-1 = test: as above; type: cell-based; conditions: JeKo-1, Blood/Lymphoma, 72 hours
Experimental: as §1

HCT 116 = test: as above; type: cell-based; conditions: HCT 116, Large intestine/Colorectum, 72 hours
Experimental: as §1

NCI-H1792 = test: as above; type: cell-based; conditions: NCI-H1792, Lung, 72 hours
Experimental: as §1

CN(C)CCNC(=O)c1ccc(-c2ccc(-c3ccc(Cl)cc3)n2-c2ccccc2C(F)(F)F)cc1 (single isomer, unassigned; atropisomer a) [Atropisomer A-1]
% ee of sample @ 40° C. ([1]; 0 h): 100 % ee
% ee of sample @ 40° C. ([1]; 24 h): 100 % ee
% ee of sample @ 40° C. ([1]; 48 h): 100 % ee
% ee of sample @ 40° C. ([1]; 72 h): 100 % ee
% ee of sample @ 40° C. ([1]; 96 h): 100 % ee
% ee of sample @ 40° C. ([1]; 10 days): 100 % ee
% ee sample @ 80° C. ([1]; 0 h): 100 % ee
% ee sample @ 80° C. ([1]; 24 h): 100 % ee
% ee sample @ 80° C. ([1]; 96 h): 100 % ee
% ee sample @ 80° C. ([1]; 10 days): 100 % ee
interconversion / racemization of atropisomers [1]: no interconversion was observed
IC50 (SW620): 8350 nM
IC50 (ML-2): 4010 nM
IC50 (JVM-2): 4710 nM
IC50 (NCI-H1299): 8250 nM
IC50 (SK-MES-1): 7780 nM
IC50 (T98G): 5260 nM
IC50 (LN-229): 7370 nM
IC50 (A549): 9190 nM
IC50 (SW480): 7550 nM
IC50 (Ramos): 3990 nM
IC50 (HBL-1): 9940 nM
IC50 (OCI-LY-19): 6670 nM
IC50 (Z-138): 7040 nM
IC50 (Daudi): 7170 nM
IC50 (LoVo): 8360 nM
IC50 (SU-DHL-2): 7010 nM
IC50 (PANC-1): > 10000 nM
IC50 (KG-1): > 10000 nM
IC50 (D283 Med): 9260 nM
IC50 (WSU-DLCL2): 6740 nM
IC50 (Capan-1): > 10000 nM
IC50 (SW1088): 8490 nM
IC50 (AsPC-1): > 10000 nM
IC50 (Raji): 3910 nM
IC50 (Daoy): 7000 nM
IC50 (Toledo): > 10000 nM
IC50 (SU-DHL-6): 3980 nM
IC50 (A-172): 7070 nM
IC50 (U-2932): 4470 nM
IC50 (NCI-H1373): > 10000 nM
IC50 (NAMALWA): 7050 nM
IC50 (JeKo-1): 7940 nM
IC50 (HCT 116): 7360 nM
IC50 (NCI-H1792): 7730 nM

CN(C)CCNC(=O)c1ccc(-c2ccc(-c3ccc(Cl)cc3)n2-c2ccccc2C(F)(F)F)cc1 (single isomer, unassigned) [Atropisomer A-2]
% ee of sample @ 40° C. ([1]; 0 h): 97.20 % ee
% ee of sample @ 40° C. ([1]; 24 h): 97.34 % ee
% ee of sample @ 40° C. ([1]; 48 h): 97.30 % ee
% ee of sample @ 40° C. ([1]; 72 h): 97.24 % ee
% ee of sample @ 40° C. ([1]; 96 h): 97.14 % ee
% ee of sample @ 40° C. ([1]; 10 days): 97.46 % ee
% ee sample @ 80° C. ([1]; 0 h): 97.20 % ee
% ee sample @ 80° C. ([1]; 24 h): 95.62 % ee
% ee sample @ 80° C. ([1]; 96 h): 96.62 % ee
% ee sample @ 80° C. ([1]; 10 days): 97.12 % ee
interconversion / racemization of atropisomers [1]: no interconversion was observed
IC50 (SW620; Homo sapiens, SW-620): 190 nM
IC50 (ML-2; Homo sapiens): 180 nM
IC50 (JVM-2; Homo sapiens): 380 nM
IC50 (NCI-H1299; Homo sapiens): 370 nM
IC50 (SK-MES-1; Homo sapiens): 360 nM
IC50 (T98G; Homo sapiens): 280 nM
IC50 (LN-229; Homo sapiens): 310 nM
IC50 (A549; Homo sapiens): 300 nM
IC50 (SW480; Homo sapiens): 870 nM
IC50 (Ramos; Homo sapiens): 340 nM
IC50 (HBL-1; HBL1): 660 nM
IC50 (OCI-LY-19; Homo sapiens, OCI-LY19): 220 nM
IC50 (Z-138; Homo sapiens): 210 nM
IC50 (Daudi; Homo sapiens): 390 nM
IC50 (LoVo; Homo sapiens): 540 nM
IC50 (SU-DHL-2; Homo sapiens): 200 nM
IC50 (PANC-1; Homo sapiens): 830 nM
IC50 (KG-1; Homo sapiens): 460 nM
IC50 (D283 Med; Homo sapiens): 310 nM
IC50 (WSU-DLCL2; Homo sapiens, WSUDLCL2): 360 nM
IC50 (Capan-1; Homo sapiens): 1230 nM
IC50 (SW1088; Homo sapiens): 770 nM
IC50 (AsPC-1; Homo sapiens, ASPC1): 2900 nM
IC50 (Raji; Homo sapiens): 360 nM
IC50 (Daoy; Homo sapiens): 180 nM
IC50 (Toledo; Homo sapiens): 880 nM
IC50 (SU-DHL-6; Homo sapiens): 260 nM
IC50 (A-172; Homo sapiens): 340 nM
IC50 (U-2932; Homo sapiens, U2932): 280 nM
IC50 (NCI-H1373; Homo sapiens): 3210 nM
IC50 (NAMALWA): 250 nM
IC50 (JeKo-1; Homo sapiens): 190 nM
IC50 (HCT 116; Homo sapiens): 230 nM
IC50 (NCI-H1792; Homo sapiens): 250 nM

— patent US12637424B2, “Pharmaceutical salt of an arylpyrrole derivative” (SENTINEL ONCOLOGY LIMITED, priority 2020, dated 2026)
